Test results taken from US9096863B2, “Biosynthetic engineering of glucosinolates” (University of Denmark, priority 2008, dated 2015).
Several values for one entry are separate records, joined by “and”; a condition that tells them apart may be missing. Equal values may be shown once.

Legend:
[1] = biological target: T1, GGP1 (Arabidopsis thaliana, UniProt Q9M0A7); experiment: In-vitro assay for GGP1 activity with the standard substrate GPNA (absorbance at 405 nm); format: biochemical; parameters: His-tag (pRSET-A N-terminal leader) (N); made in house; host or cells: E. coli; details: 1 mM GPNA, crude E. coli extract, linear part of the GGP1 curve
T1 sequence (Q9M0A7 1-250): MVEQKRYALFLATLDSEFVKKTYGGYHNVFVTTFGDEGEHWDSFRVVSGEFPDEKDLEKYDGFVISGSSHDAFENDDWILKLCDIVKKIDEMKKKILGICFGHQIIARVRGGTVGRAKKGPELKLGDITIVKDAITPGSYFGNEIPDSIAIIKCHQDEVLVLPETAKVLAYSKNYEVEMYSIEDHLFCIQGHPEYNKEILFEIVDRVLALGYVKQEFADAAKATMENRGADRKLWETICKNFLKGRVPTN
Procedure: In vitro assays were assembled with […] of crude protein extract from a cleared E. coli lysate (before column purification) in 0.1 M Tris-HCl at pH 7.5 to a total volume of 150 μl. Assay is initiated by addition of GPNA to a final concentration of 1 mM and enzyme activity is measured by absorbance at 405 nm. Absorbance was measured with 5 minute intervals from time 0-20 minutes using a spectrophotometer.

[2] = biological target: T1, GGP1; details: GS-X as substrate, 10 to 90 μM; purified recombinant His-tagged GGP1; ± SE; Michaelis-Menten fit
Procedure: Recombinant GGP1 was expressed in E. coli from the vector pRSET-A (Invitrogen) as an N-terminal His-tag fusion. Cells were grown in LB medium and induced by adding 0.02 mM IPTG at an OD600 of 0.1-0.4. After 16 hours of incubation at 18° C. and 220 rpm, cells were harvested and resuspended in binding buffer [100 mM Tris-HCl, 500 mM NaCl, 50 mM imidazole, pH 7.5] supplemented with 1 mM PMSF and 1 mM MgCl. Cell lysis was achieved by lysozyme treatment and subsequent sonication. Cell debris was spun down for 20 min at 20 000 g, and the supernatant was run through a Ni-NTA column. The column was washed with binding buffer, and bound protein was released with elution buffer [100 mM Tris-HCl, 500 mM NaCl, 500 mM imidazole, pH 7.5]. As a control, a parallel purification was performed for an empty pRSET-A vector.
200 ng of purified GGP1 or 200 ng of control protein were assayed in a final volume of 100 μL containing 20 mM Tris-HCl pH 7.5 and 20 μM GS-X. The reactions were stopped after 10 min upon addition of 300 μL methanol. After an overnight incubation at −20° C., the mixture was spun down for 20 min at 5 000 g and 200 μL of the supernatant were evaporated and redisolved in 50 μL of 75% methanol. Analysis was performed using the LC-MS/MS method previously described. For the determination of Km, similar assays were performed using a range of GS-X concentrations spanning from 10 to 90 μM. […]

Row | activity of crude extract containing recombinant GGP1 versus control extract (cleavage to p-nitroanilide) [1] | Km [2] | Compound
1 | around 10 times |  | N[C@@H](CCC(=O)Nc1ccc([N+](=O)[O-])cc1)C(=O)O [GPNA, gamma-glutamyl-p-nitroanilide]
2 |  | 56.6 µM and 57 µM | NC(CCC(=O)NC(CSC(Cc1ccccc1)=NO)C(=O)NCC(=O)O)C(=O)O [GS-X, S-(phenylacetohydroxymoyl)-L-glutathione]
